This is an account of results in paper PMC3251870 (British Journal of Cancer, 2011).

Assay [1] relates to LOXIMVI melanoma cells. As to the kind of experiment: MTS cell viability, LOXIMVI. The format is cell-based, human. Conditions: LOXIMVI, 4 days. As for the experimental part: (§1) All human cancer cell lines were maintained in RPMI media supplemented with 5% (lung and breast cancer cells) or 10% (melanoma cells) fetal bovine serum. […] Human mammary epithelial cells immortalised with telomerase were maintained in complete MEGM media from Cambrex (East Rutherford, NJ, USA).
(§2) Absorbance at 490 and 650 nm (reference wavelength) was measured by a Spectra Max (Molecular Devices, Sunnyvale, CA, USA) or a FlouroStar Omega (BMG Biosciences, Ortenberg, Germany) plate reader. Data were normalised to the untreated controls (100% viability). Each cell line was tested in 1–5 independent assays, each containing 4–8 replicates. IC50 values were calculated using DIVISA, a high-throughput software, developed in-house (manuscript in preparation), for storing and analysing drug sensitivity assays. Dose–response curves were plotted using a non-linear regression model and IC50s were determined from the fitted curves.

Assay [2] deals with HCC4017 lung cancer cells. Briefly: MTS cell viability, HCC4017. The conditions noted are these: Homo sapiens, 96 h; HCC4017, MTS, 4 days. The format is cell-based, human. As for the experimental part:
as §1, §2

The subject of assay [3] is patient-matched human bronchial epithelial cells/human non-small lung cancer cells (HBEC30KT/HCC4017, HBEC34KT/HCC4018). As to the kind of experiment: Cancer vs normal selectivity in patient-matched pairs (MTS viability). The format is cell-based. The protocol:
as §1, §2

The subject of assay [4] is MEL270 uveal melanoma cells. As to the kind of experiment: MTS cell viability, MEL270. The assay is classed as cell-based, human. The conditions noted are these: Homo sapiens, 96 h, 4 days. The protocol:
as §1, §2

Assay [5] concerns HCC4018 lung cancer cells. Briefly: MTS cell viability, HCC4018. The format is cell-based, human. Conditions: Homo sapiens, 96 h; HCC4018, MTS, 4 days. The protocol: as §1, §2
Assay [6] relates to HBEC34KT human bronchial epithelial cells. As to the kind of experiment: MTS cell viability, HBEC34KT. The format is cell-based. Conditions: Homo sapiens, Epithelial cell, 96 h, HBEC34KT, 4 days. As for the experimental part: as §1, §2
The subject of assay [7] is OCM1 uveal melanoma cells. As to the kind of experiment: MTS cell viability, OCM1. The format is cell-based, human. Conditions: Homo sapiens, 96 h, 4 days. The protocol: as §1, §2
The subject of assay [8] is OCM3 uveal melanoma cells. As to the kind of experiment: MTS cell viability, OCM3. The assay is classed as cell-based, human. The conditions noted are these: Homo sapiens, 96 h, 4 days. As for the experimental part:
as §1, §2

Assay [9] deals with Melanocytes. Briefly: MTS cell viability, primary melanocytes. The assay is classed as cell-based, human. The conditions noted are these: Homo sapiens, Melanocyte, 96 h, 4 days. The protocol: as §1, §2
Assay [10] concerns OMM2.3 uveal melanoma cells. As to the kind of experiment: MTS cell viability, OMM2.3. Conditions: Homo sapiens, 96 h, 4 days. The format is cell-based, human. As for the experimental part:
as §1, §2

Assay [11] has as its system HBEC30KT human bronchial epithelial cells. Briefly: MTS cell viability, HBEC30KT. Conditions: Homo sapiens, Epithelial cell, 96 h, HBEC30KT, 4 days. The format is cell-based. The protocol:
as §1, §2

Assay [12] deals with SKMEL2 melanoma cells. Briefly: MTS cell viability, SKMEL2. Conditions: SK-MEL2, MTS, 4 days. The format is cell-based, human. As for the experimental part: as §1, §2
The test system of assay [13] is H1437 cells. Briefly: MTS cell viability, H1437. The assay is classed as cell-based, human. The conditions noted are these: cell viability, Supplementary Figure 2D. As for the experimental part:
as §1, §2

In assay [14] the test system is HCC15 cells. As to the kind of experiment: MTS cell viability, HCC15. The assay is classed as cell-based, human. The conditions noted are these: cell viability, Supplementary Figure 2C. As for the experimental part: as §1, §2
Assay [15] has as its system H2073 cells. As to the kind of experiment: MTS cell viability, H2073. The format is cell-based, human. Conditions: H2073 cells, verapamil plus depsipeptide. The protocol:
as §1, §2

Assay [16] deals with H1993 cells. Briefly: MTS cell viability, H1993. Conditions: H1993 cells, verapamil plus depsipeptide. The format is cell-based, human. As for the experimental part: as §1, §2

Take `CCC(=O)CCCCC[C@@H]1NC(=O)[C@H]2CCCCN2C(=O)[C@H]([C@@H](C)CC)NC(=O)[C@H](Cc2cn(OC)c3ccccc23)NC1=O` [Apicidin, apicidin]: the “sensitivity (position in drug sensitivity profile of melanoma panel)” value was “sensitive” in [1] and “on the sensitive side” in [12]. In addition, the IC50 (commonly the midpoint of a concentration-inhibition curve) is 0.12 µM in assay [2]; 0.65 µM in assay [4]; 0.03 µM in assay [5]; 0.79 µM in assay [6]; 0.7 µM in [7]; 4 µM in [8]. For the same molecule, the IC50 in assay [9] is 0.2 µM; in [10], 0.4 µM; in [11], 0.09 µM. Also, the “selectivity for cancer vs normal within a matched pair” value in assay [3] (one matched lung cancer/HBEC pair) is on record as “no selectivity”; in assay [3] (second pair of lines), around 25 fold.

Consider `Nc1ccccc1NC(=O)c1ccc(CNC(=O)OCc2cccnc2)cc1` [MS-275], for which, in assay [13], the “relative potency against H1437 vs HCC15 cells” value is recorded as “more potent against H1437 cells than HCC15 cells”.

For the molecule `O=C(CCCCCN1C(=O)c2cccc3cccc(c23)C1=O)NO` [Scriptaid], in [14], the “relative sensitivity of HCC15 compared with H1437 cells” value is on record as “more sensitive”.

As for `COc1ccc(CCN(C)CCCC(C#N)(c2ccc(OC)c(OC)c2)C(C)C)cc1OC` (centres unmarked) [verapamil], the “restoration of sensitivity to depsipeptide by MDR1 inhibition” value is “partly re-sensitised” in assay [15] and “not affecting” in assay [16].
